ChEMBL document CHEMBL1142765, “Discodermolide analogues as the chemical component of combination bacteriolytic therapy” (Bioorg Med Chem Lett, 2005)

Tests used:
Type in all cases: functional, organism-based
Conditions in all cases: Homo sapiens
SK-OV-3 = experiment: Inhibitory concentration […] exhibited against SKOV3 cell line […]
A549 = experiment: Inhibitory concentration […] exhibited against A549 cell line […]
MCF7 = experiment: Inhibitory concentration […] exhibited against MCF-7 cell line […]

Compound	IC50 (SK-OV-3) [nM]	IC50 (A549) [nM]	IC50 (MCF7) [nM]
C=C/C=C\[C@H](C)[C@H](OC(N)=O)[C@@H](C)[C@H](O)[C@@H](C)C/C(C)=C\[C@H](C)[C@@H](O)[C@@H](C)/C=C\[C@@H](O)C[C@@H]1OC(=O)C(C)=C[C@H]1C	3.4	8.6	5.6
C=C/C=C\[C@H](C)[C@H](OC(N)=O)[C@@H](C)[C@H](O)[C@@H](C)C/C=C\[C@H](C)[C@@H](O)[C@@H](C)/C=C\[C@@H](O)C[C@@H]1OC(=O)[C@H](C)[C@@H](O)[C@H]1C	35	50	46
C=C/C=C\[C@H](C)[C@H](OC(N)=O)[C@@H](C)[C@H](O)[C@@H](C)C/C(C)=C\[C@H](C)[C@@H](O)[C@@H](C)/C=C\[C@@H](O)C[C@@H]1OC(=O)C=C[C@H]1C	3.4	3.7	2.1
C=C/C=C\[C@H](C)[C@H](OC(N)=O)[C@@H](C)[C@H](O)[C@@H](C)C/C(C)=C\[C@H](C)[C@@H](O)[C@@H](C)/C=C\[C@@H](O)C[C@@H]1OC(=O)[C@H](C)[C@@H](O)[C@H]1C [DISERMOLIDE]	21	22	28
